Target: recombinant IL4I1 (Homo sapiens (Human), UniProt Q96RQ9)
Test: IL4I1 Enzymatic Assay (Amplex Red/HRP coupled fluorescence detection of H2O2)
Assay type: biochemical
Conditions: 240 min; recombinant IL4I1, four-hour pre-incubation with compound
Outline: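 Recombinant human IL4I1 (1 nM final) pre-incubated 4 h with compound at ambient temperature in 50 mM Hepes pH 7.0, 0.005% Tween20. Started with 1 mM each Phe/Tyr/Trp plus Amplex Red/HRP; H2O2-derived resorufin fluorescence read after 120 min; EC50 from ten-point 1:3 titration, four-parameter fit.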

recombinant IL4I1, sequence (Q96RQ9 22-567): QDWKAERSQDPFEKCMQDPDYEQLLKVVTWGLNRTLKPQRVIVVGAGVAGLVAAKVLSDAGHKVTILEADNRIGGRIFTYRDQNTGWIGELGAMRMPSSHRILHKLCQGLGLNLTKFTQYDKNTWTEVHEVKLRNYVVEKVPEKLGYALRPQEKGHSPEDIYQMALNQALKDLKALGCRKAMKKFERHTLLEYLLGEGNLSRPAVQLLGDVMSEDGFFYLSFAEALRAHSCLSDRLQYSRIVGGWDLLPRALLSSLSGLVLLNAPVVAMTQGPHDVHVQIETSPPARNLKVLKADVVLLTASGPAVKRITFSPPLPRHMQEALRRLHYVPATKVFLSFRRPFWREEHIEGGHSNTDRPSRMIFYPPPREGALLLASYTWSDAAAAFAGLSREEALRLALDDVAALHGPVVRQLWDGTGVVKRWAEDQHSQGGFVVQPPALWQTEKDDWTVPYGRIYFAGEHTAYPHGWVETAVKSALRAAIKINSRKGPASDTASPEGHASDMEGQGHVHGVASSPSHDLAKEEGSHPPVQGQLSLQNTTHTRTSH

Compound | EC50 [nM]
O=c1c(=O)n(C23CC(C2)C3)ccn1Cc1ccc(-c2ccccn2)cn1 [Example 86, 1-([2,3′-bipyridin]-6′-ylmethyl)-4-(bicyclo[1.1.1]pentan-1-yl)-1,4-dihydropyrazine-2,3-dione] | 27
CC1(n2ccn(Cc3ccc(-c4ccccn4)nn3)c(=O)c2=O)CC1 [Example 87, 1-(1-methylcyclopropyl)-4-((6-(pyridin-2-yl)pyridazin-3-yl)methyl)-1,4-dihydropyrazine-2,3-dione] | 87
CC1(n2ccn(Cc3ccc(-c4ccccn4)cn3)c(=O)c2=O)CC1 [Example 88, 1-([2,3′-bipyridin]-6′-ylmethyl)-4-(1-methylcyclopropyl)-1,4-dihydropyrazine-2,3-dione] | 69
N#CC1(n2ccn(Cc3ccc(-c4cccnc4)nn3)c(=O)c2=O)CC1 [Example 89, 1-(2,3-dioxo-4-((6-(pyridin-3-yl)pyridazin-3-yl)methyl)-3,4-dihydropyrazin-1(2H)-yl)cyclopropane-1-carbonitrile] | 32
CC1(n2ccn(Cc3ccc(-c4cccnc4)nn3)c(=O)c2=O)CC1 [Example 90, 1-(1-methylcyclopropyl)-4-((6-(pyridin-3-yl)pyridazin-3-yl)methyl)-1,4-dihydropyrazine-2,3-dione] | 63
N#CC1(n2ccn(Cc3ccc(-c4ccccn4)nn3)c(=O)c2=O)CC1 [Example 91, 1-(2,3-dioxo-4-((6-(pyridin-2-yl)pyridazin-3-yl)methyl)-3,4-dihydropyrazin-1(2H)-yl)cyclopropane-1-carbonitrile] | 162
N#CC1(n2ccn(Cc3ccc(-c4ccccn4)cn3)c(=O)c2=O)CC1 [Example 92, 1-(4-([2,3′-bipyridin]-6′-ylmethyl)-2,3-dioxo-3,4-dihydropyrazin-1(2H)-yl)cyclopropane-1-carbonitrile] | 155
O=c1c(=O)n(C23CC(C2)C3)ccn1Cc1ccc(-c2ccccn2)nn1 [Example 93, 1-(bicyclo[1.1.1]pentan-1-yl)-4-((6-(pyridin-2-yl)pyridazin-3-yl)methyl)-1,4-dihydropyrazine-2,3-dione] | 31
CC1(n2ccn(Cc3ccc(-c4cncs4)nn3)c(=O)c2=O)CC1 [Example 94, 1-(1-methylcyclopropyl)-4-((6-(thiazol-5-yl)pyridazin-3-yl)methyl)-1,4-dihydropyrazine-2,3-dione] | 35
O=c1c(=O)n(C23CC(C2)C3)ccn1Cc1ccc(-c2cncs2)nn1 [Example 95, 1-(bicyclo[1.1.1]pentan-1-yl)-4-((6-(thiazol-5-yl)pyridazin-3-yl)methyl)-1,4-dihydropyrazine-2,3-dione] | 16
O=C1C(=O)N([C@H]2C[C@H](c3ccccc3)C2)CCN1Cc1ccc(-c2ccccc2)nn1 [Example 96A, trans-1-(3-phenylcyclobutyl)-4-((6-phenylpyridazin-3-yl)methyl)piperazine-2,3-dione] | 14
O=C1C(=O)N([C@H]2C[C@@H](c3ccccc3)C2)CCN1Cc1ccc(-c2ccccc2)nn1 [Example 96B, cis-1-(3-phenylcyclobutyl)-4-((6-phenylpyridazin-3-yl)methyl)piperazine-2,3-dione] | 8
O=C1C(=O)N(C2CCCC2)CCN1Cc1ccc(-c2ccccc2)cn1 [Example 98, 1-cyclopentyl-4-((5-phenylpyridin-2-yl)methyl)piperazine-2,3-dione] | 12
O=C1C(=O)N(C2CCCC2)CCN1Cc1ccc(-c2ccccc2)cc1F [Example 100, 1-cyclopentyl-4-((3-fluoro-[1,1′-biphenyl]-4-yl)methyl)piperazine-2,3-dione] | 8
O=C1C(=O)N(C2CCCC2)CCN1Cc1ncc(-c2ccccc2)cc1F [Example 101, 1-cyclopentyl-4-((3-fluoro-5-phenylpyridin-2-yl)methyl)piperazine-2,3-dione] | 8
O=C1C(=O)N(C2CCCC2)CCN1Cc1cnc(-c2ccccc2)c(F)c1 [Example 102, 1-cyclopentyl-4-((5-fluoro-6-phenylpyridin-3-yl)methyl)piperazine-2,3-dione] | 14
O=C1C(=O)N(C2CCCC2)CCN1Cc1cnc(-c2ccccc2)nn1 [Example 103, 1-cyclopentyl-4-((3-phenyl-1,2,4-triazin-6-yl)methyl)piperazine-2,3-dione] | 11
O=C1C(=O)N(C2CCC2)CCN1Cc1cnc(-c2ccccc2)nc1 [Example 107, 1-cyclobutyl-4-((2-phenylpyrimidin-5-yl)methyl)piperazine-2,3-dione] | 13
CC(c1cnc(-c2ccccc2)cn1)N1CCN(C2CCC2)C(=O)C1=O (centres unmarked) [Example 108, 1-cyclobutyl-4-(1-(5-phenylpyrazin-2-yl)ethyl)piperazine-2,3-dione] | 20
O=C1C(=O)N(C2CCC2)CCN1Cc1ccc(-n2ccnn2)nc1 [Example 109, 1-((6-(1H-1,2,3-triazol-1-yl)pyridin-3-yl)methyl)-4-cyclobutylpiperazine-2,3-dione] | 24
O=C1C(=O)N(C23CC(C2)C3)CCN1Cc1cnc(-c2ccccc2)nc1 [Example 110, 1-(bicyclo[1.1.1]pentan-1-yl)-4-((2-phenylpyrimidin-5-yl)methyl)piperazine-2,3-dione] | 27
O=c1c(=O)n(C23CC(C2)C3)ccn1Cc1cnc(-c2ccccc2)nc1 [Example 111, 1-(bicyclo[1.1.1]pentan-1-yl)-4-((2-phenylpyrimidin-5-yl)methyl)-1,4-dihydropyrazine-2,3-dione] | 8
O=C1C(=O)N(C2CCC2)CCN1Cc1ccc(-n2nccn2)nc1 [Example 113, 1-((6-(2H-1,2,3-triazol-2-yl)pyridin-3-yl)methyl)-4-cyclobutylpiperazine-2,3-dione] | 15
O=C1C(=O)N(C23CC(C2)C3)CCN1Cc1ccc(-n2nccn2)nc1 [Example 116, 1-((6-(2H-1,2,3-triazol-2-yl)pyridin-3-yl)methyl)-4-(bicyclo[1.1.1]pentan-1-yl)piperazine-2,3-dione] | 17
O=C1C(=O)N(C23CC(C2)C3)CCN1Cc1ccc(-n2ccnn2)nc1 [Example 117, 1-((6-(1H-1,2,3-triazol-1-yl)pyridin-3-yl)methyl)-4-(bicyclo[1.1.1]pentan-1-yl)piperazine-2,3-dione] | 14
O=C1C(=O)N(C23CC(C2)C3)CCN1Cc1nnc(-c2ccccc2)s1 [Example 121, 1-(bicyclo[1.1.1]pentan-1-yl)-4-((5-phenyl-1,3,4-thiadiazol-2-yl)methyl)piperazine-2,3-dione] | 7
O=c1c(=O)n(C2CCCC2)ccn1Cc1nnc(-c2ccccc2)s1 [Example 124, 1-cyclopentyl-4-((5-phenyl-1,3,4-thiadiazol-2-yl)methyl)-1,4-dihydropyrazine-2,3-dione] | 7

Next, values leading:

EC50 [nM] | Compound
5 | O=C1C(=O)N(C2CCCC2)CCN1Cc1ccc(-c2ccccc2)nc1 [Example 97, 1-cyclopentyl-4-((6-phenylpyridin-3-yl)methyl)piperazine-2,3-dione]
4 | O=C1C(=O)N(C2CCCC2)CCN1Cc1cc(-c2ccccc2)on1 [Example 104, 1-cyclopentyl-4-((5-phenylisoxazol-3-yl)methyl)piperazine-2,3-dione]
2 | O=C1C(=O)N(C2CCC2)CCN1Cc1cc(-c2ccccc2)on1 [Example 105, 1-cyclobutyl-4-((5-phenylisoxazol-3-yl)methyl)piperazine-2,3-dione]
7 | O=C1C(=O)N(C2CCC2)CCN1Cc1ncc(-c2ccccc2)cc1F [Example 106, 1-cyclobutyl-4-((3-fluoro-5-phenylpyridin-2-yl)methyl)piperazine-2,3-dione]
7 | O=C1C(=O)N(C23CC(C2)C3)CCN1Cc1cnc(-c2ccccc2)cn1 [Example 112, 1-(bicyclo[1.1.1]pentan-1-yl)-4-((5-phenylpyrazin-2-yl)methyl)piperazine-2,3-dione]
7 | O=C1C(=O)N(C23CC(C2)C3)CCN1Cc1ccc(-c2ccccc2)cn1 [Example 114, 1-(bicyclo[1.1.1]pentan-1-yl)-4-((5-phenylpyridin-2-yl)methyl)piperazine-2,3-dione]
4 | O=c1c(=O)n(C23CC(C2)C3)ccn1Cc1ccc(-c2ccccc2)cn1 [Example 115, 1-(bicyclo[1.1.1]pentan-1-yl)-4-((5-phenylpyridin-2-yl)methyl)-1,4-dihydropyrazine-2,3-dione]
7 | O=C1C(=O)N(C2CCC2)CCN1Cc1cnc(-c2ccccc2)cn1 [Example 118, 1-cyclobutyl-4-((5-phenylpyrazin-2-yl)methyl)piperazine-2,3-dione]
4 | O=C1C(=O)N(C2CCCC2)CCN1CCc1cc(-c2ccccc2)on1 [Example 119, 1-cyclopentyl-4-(2-(5-phenylisoxazol-3-yl)ethyl)piperazine-2,3-dione]
3 | O=c1c(=O)n(C23CC(C2)C3)ccn1Cc1nnc(-c2ccccc2)s1 [Example 120, 1-(bicyclo[1.1.1]pentan-1-yl)-4-((5-phenyl-1,3,4-thiadiazol-2-yl)methyl)-1,4-dihydropyrazine-2,3-dione]
6 | O=C1C(=O)N(C23CC(C2)C3)CCN1Cc1ccc(-c2ccccc2)nc1 [Example 122, 1-(bicyclo[1.1.1]pentan-1-yl)-4-((6-phenylpyridin-3-yl)methyl)piperazine-2,3-dione]
5 | O=C1C(=O)N(C2CCC2)CCN1Cc1cnc(-c2ccccc2)c(F)c1 [Example 123, 1-cyclobutyl-4-((5-fluoro-6-phenylpyridin-3-yl)methyl)piperazine-2,3-dione]
3 | O=c1c(=O)n([C@H]2C[C@H]3C[C@H]3C2)ccn1Cc1cnc(-c2ccccc2)cn1 [Example 125]
3 | O=c1c(=O)n(C2CCCC2)ccn1Cc1cnc(-c2ccccc2)cn1 [Example 126, 1-cyclopentyl-4-((5-phenylpyrazin-2-yl)methyl)-1,4-dihydropyrazine-2,3-dione]
